Experimental data published in patent publication US20120302616A1, “METHOD OF TREATMENT OF OBSESSIVE COMPULSIVE DISORDER WITH ONDANSETRON” (priority 2010, published 2012).
“And” between values parts separate entries of the source, which are not always exact repeats. Equal values may be shown once.

Test system: patients with treatment-resistant OCD
Assay: Ondansetron augmentation of SRI plus antipsychotic therapy, single-blind 12-week study (YBOCS, CGI, MADRS)
Assay type: in vivo, human
From the text: Between March 2008 and November 2008, fourteen adults aged 18 to 55 were enrolled in a study at the Institute for Neuroscience, Florence, Italy. […] All diagnoses were established utilizing a structured interview, the Structured Clinical Interview for DSM IV Axis I Disorders (SCID I). (See Spitzer, R. L. et al. ARCH GEN PSYCHIATRY 49(8):624-649) Potential subjects with a history of alcohol or substance abuse, current severe depressive symptoms, bipolar disorder, panic disorder, schizophrenia, other psychiatric conditions, heart disease, arrhythmia, liver problems (including cirrhosis), seizures, glaucoma or serious medical disease were excluded. Patients with hoarding as their only OCD symptom and women of childbearing potential not using a medically acceptable contraceptive method were also excluded. After being fully informed about the study and signing an informed consent approved by the Internal Institutional Review Board, subjects were administered an ondansetron hydrochloride (oral solution) dosage of 0.25 mg twice a day for 6 weeks, followed by 0.5 mg twice a day for 6 weeks for a total observation period of 12 weeks. […] The Y-BOCS, Montgomery-Asberg Depression Rating Scale (MADRS) (see Montgomery, S. A., BR J PSYCHIATRY 1979; 134:382-389) was administered at screening and baseline, and these assessments were repeated at every follow-up visit at 2-week intervals, along with the Clinical Global Impressions-Improvement (CGI-I) rating (see Guy, W. ECDEU Assessment Manual for Psychopharmacology. US Dept Health, Education, and Welfare publication (ADM) 76-338. Rockville, Md.: National Institute of Mental Health; 1976:218-222) and an unpublished Drug Effect scale. The Drug Effect scale asked subjects to rate “How anxious are you now?” on a scale of zero (not at all) to 10 (“the most anxious I have ever been”). Similar rating questions have been “Do you experience appearance or increment in frequency of headaches?”, “Do you experience appearance or increment in frequency of headaches fatigue?” and “Do you experience appearance or increment in frequency of headaches constipation” and so on regarding other common ondansetron side effects (diarrhea, urinary retention, itching, and dizziness). Furthermore, each evening during the first week of study medication, a study psychiatrist called the subject to ask for major or unexpected collateral effects (as chest pain, an unexplained skin rash, or tremors.). […] (See […]. et al., AM J PSYCHIATRY 1997; 154:320-321) Subjects with MADRS scores ≧18 were excluded. Ratings were administered by an investigator who was blind to the treatment condition of the patients. Given the small sample size, mean changes from baseline in rating scales were tested with a non-parametric method based on ranks (Wilcoxon signed rank test), using a two-tailed significance level of p≦0.05. Relationships among rated and demographical variables were tested with Spearman's rank correlation tests, using a two-tailed significance level of p≦0.05. Age, baseline OCD severity, and depressive symptoms were controlled for by stratifying through the Mantel-Haenszel χ2 test. Body mass index (BMI) was adjusted given the differences of ondansetron bioavailability according to BMI.

[1] = End of 6th week, Non responder (n = 5)
[2] = End of 6th week, Responder (n = 9)
[3] = End of 12th week, Non responder (n = 5)
[4] = End of 12th week, Responder (n = 9)
[5] = from baseline, individual patients 1-14

## Cc1nccn1CC1CCc2c(c3ccccc3n2C)C1=O (centres unmarked) [ondansetron]
6 weeks, individual patients 1-14
  YBOCS Score: 25 (3×) and 28 and 17 (2×) and 16 and 27 and 26 and 24 (3×) and 19 and 21
6 weeks, n=14
  average YBOCS score decrease of the whole group: 16%
12th week, 9/14
  patients reaching YBOCS criteria for treatment response (decrease of ≧25%): 64.2%
12th week, of 14
  patients very much improved or much improved (CGI-I 1 or 2): seven
12 weeks, individual patients 1-14
  YBOCS Score: 25 (3×) and 15 (2×) and 14 and 30 and 23 and 22 (2×) and 24 and 18 and 17 and 20
12 weeks, n=14
  average YBOCS score decrease of the whole group: 23%
  patients with greater than 25% improvement in OCD symptoms: Sixty-four
[1]
  CGI (mean): 4.6
  MADRS (mean): 8.0
[2]
  CGI (mean): 3.4
  MADRS (mean): 6.7
[3]
  CGI (mean): 4.8
  MADRS (mean): 7.6
  YBOCS (mean): 21.4
[4]
  CGI (mean): 2.3
  MADRS (mean): 6.8
Patient 11 (citalopram 60 mg/day and risperidone 2 mg/day), 12th week
  YBOCS score decrease: ≥ 35%
Baseline to the end of week 1
  Mean MADRS scores change from baseline: did not change significantly
[5]
  YBOCS Percent Reduction at 6 weeks: 20.00% (2×) and 15.00% and .00%
  YBOCS Percent Reduction at 12 weeks: 28.57% and 25.00% (2×) and 30.00%
Out of 14, within 12 weeks of treatment
  patients with significant improvement in OCD symptoms: 9
Through week 12
  Clinical Global Impressions-Improvement (CGI-I) scores: improved concurrent with improvement in the YBOCS scores
Two responder patients
  outcome after discontinuation of the ondansetron: experienced worsening
